This note sets out measurements from ChEMBL document CHEMBL1201862, “PubChem BioAssay data set” (2004).

Holding throughout (assay): growth of human tumour cells (NCI), 48 h
The test system of assay [1] is PC-3.
Assay [2] has as its system CAKI-1.
Assay [3] concerns OVCAR-5.
Assay [4] relates to MDA-N.
Assay [5] concerns SR.
Assay [6] has as its system UACC-257.
The subject of assay [7] is EKVX.
The subject of assay [8] is U-251.
Assay [9] concerns T47D.
Assay [10] has as its system RXF 393.
Assay [11] relates to MDA-MB-435.
Assay [12] deals with LOX IMVI.
Assay [13] deals with NCI-H522.
In assay [14] the test system is A549.
Assay [15] deals with SNB-75.
In assay [16] the test system is SN12C.
Assay [17] concerns SK-MEL-28.
Assay [18] deals with SF-539.
Assay [19] relates to SF-268.
Assay [20] deals with RPMI-8226.

The structures appear in SMILES notation.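 Tested at 5 concentrations; 48 h exposure; 96-well plates; endpoints linearly interpolated, else capped at highest concentration. GI50 is the concentration that inhibits growth by half.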 The source made the active and inactive calls. No stated cut-off is given here; in the data, active = GI50 up to about 1.1 µM and inactive = higher. Bounds are passed on as bounds.

Take `CN(C(=O)c1ccc2c(c1)sc1c(=O)n(C)c3ccccc3c12)c1ccccc1`: the GI50 in assay [1], in assay [2], in assay [3], in [4], in assay [5] and in assay [6] was > 100 µM (inactive) each time. Further, the GI50 was > 100 µM (inactive) in assay [7]; 50 µM (inactive) in assay [8]; > 100 µM (inactive) in assay [9]; > 100 µM (inactive) in assay [10]; > 100 µM (inactive) in assay [11]; > 100 µM (inactive) in assay [12]. The GI50 in assay [13], in assay [14], in assay [15], in assay [16], in assay [17] and in [18] was > 100 µM (inactive) throughout.
As to `COC(=O)C1=C(C(=O)OC)C2OC1C1C2C2(C)C(C)=C(C)C1(C)[S+]2[O-]` (stereo not given), the GI50 in [19] was 9.55 µM (inactive); in [1], 16.1 µM (inactive); in assay [20] it was 4.73 µM (inactive); in assay [2], 4.93 µM (inactive); in assay [3], 15.5 µM (inactive); in assay [4] it was 11.3 µM (inactive). The GI50 in [6] is 12.4 µM (inactive); in [7], 11.5 µM (inactive); in assay [8] it was 13.8 µM (inactive); in assay [9] it was 6.71 µM (inactive); in assay [10] it was 3.37 µM (inactive); in assay [11], 6.73 µM (inactive). For the same compound, the GI50 in assay [12] was 16.6 µM (inactive); in assay [13], 2.14 µM (inactive); in [14], 22.3 µM (inactive); in assay [15], 19.5 µM (inactive); in assay [16], 16.6 µM (inactive); in assay [17] it was 19.1 µM (inactive). The GI50 in assay [18] is 5.51 µM (inactive).
Consider `CCC[C@H](N[S+]([O-])c1ccc(C)cc1)C(C(=O)OCC)=C(c1ccccc1)c1ccccc1` (stereo not given in full), for which the GI50 in assay [19] is 30.1 µM (inactive); in assay [1], 15 µM (inactive); in assay [20], 18.7 µM (inactive); in assay [2], 13.3 µM (inactive); in assay [3], 14.5 µM (inactive); in [4], 20.8 µM (inactive). Also, the GI50 in [6] is 16.1 µM (inactive); in assay [7] it was 18.2 µM (inactive); in assay [8], 16.2 µM (inactive); in assay [9], 16.8 µM (inactive); in assay [10], 14.5 µM (inactive); in assay [11] it was 17.1 µM (inactive). For the same compound, the GI50 in assay [12] was 18.1 µM (inactive); in assay [13], 17.3 µM (inactive); in assay [14], 21.5 µM (inactive); in assay [15] it was 17.8 µM (inactive); in [16] it was 19.8 µM (inactive); in assay [17], 27.6 µM (inactive). Moreover, the GI50 in assay [18] was 22.9 µM (inactive).
Take `C=CCOc1ccccc1C1(O)c2ccccc2C2=NCCCN21` (stereo not given): the GI50 in [19] is > 100 µM (inactive); in assay [1] it was 20.7 µM (inactive); in assay [20] it was 35.6 µM (inactive); in [2], > 100 µM (inactive); in assay [3] it was 32.3 µM (inactive); in assay [4] it was 39.9 µM (inactive). Also, the GI50 is > 100 µM (inactive) in [5]; 30.9 µM (inactive) in [6]; 56.1 µM (inactive) in [7]; 46.5 µM (inactive) in [8]; > 100 µM (inactive) in assay [9]; 30.9 µM (inactive) in [11]. The GI50 in assay [12] is 38.1 µM (inactive); in assay [14], > 100 µM (inactive); in assay [15], 15.1 µM (inactive); in assay [16], 74.1 µM (inactive); in assay [17], 20.4 µM (inactive); in assay [18], 17.6 µM (inactive).
For the compound `O=C1C(Cl)=C(NCCCN2CCOCC2)C(=O)c2c(O)ccc(O)c21`, the GI50 in [19] was 2.84 µM (inactive); in [1], 2.96 µM (inactive); in assay [20], 0.0598 µM (active); in assay [3] it was 1.71 µM (inactive); in [4], 1.72 µM (inactive); in [5], 2.58 µM (inactive). Also, the GI50 in assay [6] is 2.35 µM (inactive); in assay [7], 1 µM (active); in assay [8], 2.19 µM (inactive); in assay [9] it was 4.89 µM (inactive); in assay [10], 1.75 µM (inactive); in assay [11], 1.85 µM (inactive). Also, the GI50 in assay [12] was 1.8 µM (inactive); in [14], 3.9 µM (inactive); in [15], 2.38 µM (inactive); in assay [16], 2.01 µM (inactive); in assay [17], 1.77 µM (inactive); in [18] it was 1.68 µM (inactive).
`C(#Cc1ccccc1)SC1=C(c2ccccc2)S/C(=C(\SC#Cc2ccccc2)c2ccccc2)S1`: the GI50 in assay [19], in assay [1], in [2], in assay [3], in assay [4] and in assay [5] was > 100 µM (inactive) in each case. The GI50 in assay [6], in [7], in assay [8], in assay [9], in assay [11] and in [12] was > 100 µM (inactive) in each case. Besides, the GI50 in assay [13], in assay [14], in [15], in assay [16], in [17] and in assay [18] was > 100 µM (inactive) throughout.
As for `COCCN(CCOC)C(=O)COc1c2cc(C(C)(C)C)cc1Cc1cc(C(C)(C)C)cc(c1OCC(=O)N(CCOC)CCOC)Cc1cc(C(C)(C)C)cc(c1OCC(=O)N(CCOC)CCOC)Cc1cc(C(C)(C)C)cc(c1OCC(=O)N(CCOC)CCOC)Cc1cc(C(C)(C)C)cc(c1OCC(=O)N(CCOC)CCOC)C2`, the GI50 in assay [19] is 1.93 µM (inactive); in assay [1] it was 0.659 µM (active); in [3] it was 5.55 µM (inactive); in [4], 2.1 µM (inactive); in assay [5], 0.352 µM (active); in assay [6], 1.01 µM (active). For the same compound, the GI50 was 0.434 µM (active) in assay [7]; 0.53 µM (active) in assay [8]; 1.27 µM (inactive) in assay [9]; 1.09 µM (active) in assay [10]; 2.09 µM (inactive) in assay [11]; 1.73 µM (inactive) in [12]. For the same compound, the GI50 in assay [13] is 0.655 µM (active); in [14], 0.802 µM (active); in assay [15], 0.0881 µM (active); in [16], 0.851 µM (active); in [17], 3.33 µM (inactive); in [18], 2.34 µM (inactive).
Regarding `C1CCCCC2(CCCCCCCCC3(CCC1)SCCS3)SCCS2`, the GI50 in [19], in [1], in assay [2], in [3], in [4] and in [5] was > 100 µM (inactive) each time. Also, the GI50 in assay [6], in assay [7], in assay [8], in [9], in [11] and in assay [12] was > 100 µM (inactive) throughout. Also, the GI50 in [13], in assay [14], in [15], in assay [16], in assay [17] and in assay [18] was > 100 µM (inactive) each time.
Turning to `Cc1cc(N(CCC#N)CCC#N)ccc1/C=N/NC(=O)c1cc(Cl)ccc1O`, the GI50 in assay [19] was 72.6 µM (inactive); in assay [1], > 100 µM (inactive); in assay [2], > 100 µM (inactive); in [3], > 100 µM (inactive); in assay [4], > 100 µM (inactive); in assay [5] it was > 100 µM (inactive). Besides, the GI50 in assay [6] is > 100 µM (inactive); in [7] it was > 100 µM (inactive); in assay [8], 49.3 µM (inactive); in assay [9] it was > 100 µM (inactive); in assay [10], > 100 µM (inactive); in [11], > 100 µM (inactive). In addition, the GI50 is 37.3 µM (inactive) in assay [13]; > 100 µM (inactive) in [14]; 34.1 µM (inactive) in assay [15]; > 100 µM (inactive) in assay [16]; > 100 µM (inactive) in assay [18].
As to `O=C(O)C(O)C(O)C(O)C(O)c1nc2ccccc2s1` (stereo not given), the GI50 is 14.9 µM (inactive) in [19]; 15.3 µM (inactive) in assay [1]; 25.9 µM (inactive) in [20]; 17.7 µM (inactive) in assay [2]; 26.9 µM (inactive) in [3]; 17.1 µM (inactive) in [4]. Besides, the GI50 in assay [6] is 15.8 µM (inactive); in assay [7], 15.4 µM (inactive); in assay [8] it was 15.7 µM (inactive); in assay [9], 19.5 µM (inactive); in assay [10], 18 µM (inactive); in assay [11] it was 17.3 µM (inactive). Besides, the GI50 in assay [12] is 16.9 µM (inactive); in [13], 12.3 µM (inactive); in assay [14], 18.2 µM (inactive); in [15], 16.9 µM (inactive); in [16], 18.7 µM (inactive); in assay [17] it was 20.3 µM (inactive). Moreover, the GI50 in assay [18] is 17.9 µM (inactive).
With `O=c1[nH]c(=O)n([C@@H]2O[C@H](CO)[C@@H](O)[C@H]2O)cc1F` [5-FLUOROURIDINE], the GI50 in assay [19] was 0.0716 µM (active); in assay [1], 0.164 µM (active); in [20], 0.126 µM (active); in assay [2], 0.0483 µM (active); in [3], 0.718 µM (active); in assay [4] it was 0.025 µM (active). Moreover, the GI50 was 0.0473 µM (active) in [5]; 37.2 µM (inactive) in [7]; 0.0462 µM (active) in [8]; 0.114 µM (active) in [9]; 0.221 µM (active) in assay [10]; 0.0333 µM (active) in assay [11]. Further, the GI50 in [12] was 0.0556 µM (active); in assay [14], 0.0179 µM (active); in assay [15], 2.25 µM (inactive); in assay [16] it was 0.0603 µM (active); in [17], 0.805 µM (active); in assay [18], 0.0375 µM (active).
